In ChEMBL document CHEMBL5126654, “Cyclopiazonic Acid and Okaramine Analogues, Including Chlorinated Compounds, from Chrysosporium undulatum YT-1” (2022):
Converted amounts (≈) assume the structure as drawn. The source made the active and inactive calls. The rule behind the calls is not given here.

Test system: Bacillus subtilis
Assay: Antibacterial activity against Bacillus subtilis measured after 24 hrs by agar diffusion method
Type: functional
Details: not given

SMILES | MIC
C/C(O)=C1\C(=O)[C@@H]2[C@H]3c4c[nH]c5cc(Cl)cc(c45)[C@@H](O)[C@H]3C(C)(C)N2C1=O | 6.3 mg/L (≈ 16.3 µM)

Test system: Helicoverpa armigera
Assay: Insecticidal activity against third instar larvae of Helicoverpa armigera (cotton bollworms) measured after 24 hrs
Type: functional
Details: not given

SMILES | LD50
CO[C@@H]1[C@]2(O)c3cccc(O)c3N3C(C)(C)[C@H](C)[C@]32N2C(=O)/C3=C/c4c([nH]c5cc(Cl)ccc45)C(C)(C)/C=C\N3C(=O)[C@]12O | 4.13 mg/kg
C=C(C)[C@H]1Cc2c(ccc3c2O[C@@H]2COc4cc(OC)c(OC)cc4[C@@H]2C3=O)O1 [ROTENONE] | 5.79 mg/kg
CO[C@@H]1[C@]2(O)c3cc(O)ccc3N3C(C)(C)[C@H](CO)[C@]32N2C(=O)/C3=C/c4c([nH]c5ccccc45)C(C)(C)/C=C\N3C(=O)[C@]12O | > 100 mg/kg
CO[C@@H]1[C@]2(O)c3cc(O)ccc3N3C(C)(C)[C@H](C)[C@]32N2C(=O)/C3=C/c4c([nH]c5ccccc45)C(C)(C)/C=C\N3C(=O)[C@]12O | < 0.01 mg/kg
CO[C@@H]1[C@]2(O)c3cc(O)ccc3N3C(C)(C)[C@H](CO)[C@]32N2C(=O)/C3=C/c4c([nH]c5cc(Cl)ccc45)C(C)(C)/C=C\N3C(=O)[C@]12O | > 100 mg/kg
CO[C@@H]1[C@]2(O)c3cc(O)ccc3N3C(C)(C)[C@H](C)[C@]32N2C(=O)/C3=C/c4c([nH]c5cc(Cl)ccc45)C(C)(C)/C=C\N3C(=O)[C@]12O | 0.06 mg/kg

Test system: Bombyx mori
Assay: Insecticidal activity against third instar larvae of Bombyx mori (silkworm) measured after 24 hrs
Type: functional
Details: not given

SMILES | LD50
CO[C@@H]1[C@]2(O)c3cccc(O)c3N3C(C)(C)[C@H](C)[C@]32N2C(=O)/C3=C/c4c([nH]c5cc(Cl)ccc45)C(C)(C)/C=C\N3C(=O)[C@]12O | 7.56 mg/kg
C=C(C)[C@H]1Cc2c(ccc3c2O[C@@H]2COc4cc(OC)c(OC)cc4[C@@H]2C3=O)O1 [ROTENONE] | 37.8 mg/kg
CO[C@@H]1[C@]2(O)c3cc(O)ccc3N3C(C)(C)[C@H](CO)[C@]32N2C(=O)/C3=C/c4c([nH]c5ccccc45)C(C)(C)/C=C\N3C(=O)[C@]12O | > 100 mg/kg
CO[C@@H]1[C@]2(O)c3cc(O)ccc3N3C(C)(C)[C@H](C)[C@]32N2C(=O)/C3=C/c4c([nH]c5ccccc45)C(C)(C)/C=C\N3C(=O)[C@]12O | 0.07 mg/kg
CO[C@@H]1[C@]2(O)c3cc(O)ccc3N3C(C)(C)[C@H](CO)[C@]32N2C(=O)/C3=C/c4c([nH]c5cc(Cl)ccc45)C(C)(C)/C=C\N3C(=O)[C@]12O | > 100 mg/kg
CO[C@@H]1[C@]2(O)c3cc(O)ccc3N3C(C)(C)[C@H](C)[C@]32N2C(=O)/C3=C/c4c([nH]c5cc(Cl)ccc45)C(C)(C)/C=C\N3C(=O)[C@]12O | 0.61 mg/kg

Test system: PC12D
Assay: Neuroprotective activity in rat PC12 cells assessed as reduction in 6-OHDA-induced cell death at 40 uM pretreated for 30 mins followed by 6-OHDA stimulation and measured after 24 hrs by MTT assay
Type: functional, cell-based
Details: time 24.5 hrs

SMILES | Activity
CC(NCCc1ccccc1)=C1C(=O)[C@@H]2[C@H]3c4c[nH]c5cccc(c45)C[C@H]3C(C)(C)N2C1=O (mixture of isomers) | Active
